Assay results taken from ChEMBL document CHEMBL3885881, “DrugMatrix”.

Species: Rattus norvegicus
Assay: DrugMatrix - Regimen: Daily Repeat
Assay type: toxicity, organism-based, Sprague-Dawley
Set-up: regimen Daily Repeat, gender Male, age 6-8 weeks
Conditions: in vivo, po, 0 mg/kg, route oral GAVAGE, dose level Control, […]; for ABSOLUTE BASOPHIL / ABSOLUTE EOSINOPHIL / ABSOLUTE LYMPHOCYTE / ABSOLUTE MONOCYTE / ABSOLUTE SEGMENTED NEUTROPHIL / BASOPHIL / EOSINOPHIL / ERYTHROCYTE COUNT / HEMATOCRIT / HEMOGLOBIN / LEUKOCYTE COUNT / LYMPHOCYTE / MEAN CORPUSCULAR HEMOGLOBIN / MEAN CORPUSCULAR HEMOGLOBIN CONCENTRATION / MEAN CORPUSCULAR VOLUME / MONOCYTE / NEUTROPHIL / NUCLEATED RED BLOOD CELLS / PLATELET COUNT: tissue Blood; for ALANINE AMINOTRANSFERASE / ALBUMIN / ALKALINE PHOSPHATASE / ASPARTATE AMINOTRANSFERASE / BLOOD UREA NITROGEN / CARBON DIOXIDE / CHLORIDE / CHOLESTEROL / CREATINE PHOSPHOKINASE / CREATININE / GLUCOSE / LACTATE DEHYDROGENASE / LIPASE / PHOSPHORUS / POTASSIUM / SODIUM / TOTAL BILIRUBIN / TOTAL PROTEIN / URIC ACID: tissue Plasma

`Oc1c(Cl)cc(Cl)cc1Sc1cc(Cl)cc(Cl)c1O` [BITHIONOL] was tested, and the “ABSOLUTE BASOPHIL” value (72 h, time 3 day) was 0 CELLS/uL, the “ABSOLUTE EOSINOPHIL” value (72 h, time 3 day) was 33 CELLS/uL and the “ABSOLUTE LYMPHOCYTE” value (72 h, time 3 day) was 9048.5 CELLS/uL. For the same molecule, the “ABSOLUTE MONOCYTE” value (72 h, time 3 day) was 80.17 CELLS/uL, the “ABSOLUTE SEGMENTED NEUTROPHIL” value (72 h, time 3 day) was 1521.67 CELLS/uL and the BASOPHIL (72 h, time 3 day) was 0%. For the same molecule, the EOSINOPHIL (72 h, time 3 day) was 0.17%, the “ERYTHROCYTE COUNT” value (72 h, time 3 day) was 5.46 x10E6/uL and the HEMATOCRIT (72 h, time 3 day) was 32.87%. The HEMOGLOBIN (72 h, time 3 day) was 12.95 G/DL, the “LEUKOCYTE COUNT” value (72 h, time 3 day) was 10.68 x10E3/uL and the LYMPHOCYTE (72 h, time 3 day) was 86.67%. For the same molecule, the “MEAN CORPUSCULAR HEMOGLOBIN” value (72 h, time 3 day) was 23.72 pg, the “MEAN CORPUSCULAR HEMOGLOBIN CONCENTRATION” value (72 h, time 3 day) was 39.4 G/DL and the “MEAN CORPUSCULAR VOLUME” value (72 h, time 3 day) was 60.18 fL. The MONOCYTE (72 h, time 3 day) was 0.83%, the NEUTROPHIL (72 h, time 3 day) was 12.33% and the “NUCLEATED RED BLOOD CELLS” value (72 h, time 3 day) was 0 /100WBC. For the same molecule, the “PLATELET COUNT” value (72 h, time 3 day) was 1211.33 x10E3/uL, the “ALANINE AMINOTRANSFERASE” value (72 h, time 3 day) was 76.67 u/L and the ALBUMIN (72 h, time 3 day) was 3.93 G/DL. The “ALKALINE PHOSPHATASE” value (72 h, time 3 day) was 317.17 u/L, the “ASPARTATE AMINOTRANSFERASE” value (72 h, time 3 day) was 81.17 u/L and the “BLOOD UREA NITROGEN” value (72 h, time 3 day) was 12.33 mg/dL. For the same molecule, the “CARBON DIOXIDE” value (72 h, time 3 day) was 31.17 mmol/L, the CHLORIDE (72 h, time 3 day) was 98.33 MEQ/L and the CHOLESTEROL (72 h, time 3 day) was 67.17 mg/dL. The “CREATINE PHOSPHOKINASE” value (72 h, time 3 day) was 312.33 u/L, the CREATININE (72 h, time 3 day) was 0.19 mg/dL and the GLUCOSE (72 h, time 3 day) was 165.5 mg/dL. The “LACTATE DEHYDROGENASE” value (72 h, time 3 day) was 94.5 u/L, the LIPASE (72 h, time 3 day) was 9.83 u/L and the PHOSPHORUS (72 h, time 3 day) was 10.1 mg/dL. For the same molecule, the POTASSIUM (72 h, time 3 day) was 5.16 MEQ/L, the SODIUM (72 h, time 3 day) was 143.02 MEQ/L and the “TOTAL BILIRUBIN” value (72 h, time 3 day) was 0.2 mg/dL. The “TOTAL PROTEIN” value (72 h, time 3 day) was 5.88 G/DL, the “URIC ACID” value (72 h, time 3 day) was 0.68 mg/dL and the “ABSOLUTE BASOPHIL” value (120 h, time 5 day) was 0 CELLS/uL. The “ABSOLUTE EOSINOPHIL” value (120 h, time 5 day) was 14.67 CELLS/uL, the “ABSOLUTE LYMPHOCYTE” value (120 h, time 5 day) was 9629.83 CELLS/uL and the “ABSOLUTE MONOCYTE” value (120 h, time 5 day) was 72.5 CELLS/uL. For the same molecule, the “ABSOLUTE SEGMENTED NEUTROPHIL” value (120 h, time 5 day) was 1049.67 CELLS/uL, the BASOPHIL (120 h, time 5 day) was 0% and the EOSINOPHIL (120 h, time 5 day) was 0.17%. The “ERYTHROCYTE COUNT” value (120 h, time 5 day) was 5.36 x10E6/uL, the HEMATOCRIT (120 h, time 5 day) was 33.82% and the HEMOGLOBIN (120 h, time 5 day) was 13.48 G/DL. The “LEUKOCYTE COUNT” value (120 h, time 5 day) was 10.77 x10E3/uL, the LYMPHOCYTE (120 h, time 5 day) was 90.17% and the “MEAN CORPUSCULAR HEMOGLOBIN” value (120 h, time 5 day) was 25.28 pg. For the same molecule, the “MEAN CORPUSCULAR HEMOGLOBIN CONCENTRATION” value (120 h, time 5 day) was 39.92 G/DL, the “MEAN CORPUSCULAR VOLUME” value (120 h, time 5 day) was 63.3 fL and the MONOCYTE (120 h, time 5 day) was 0.67%. For the same molecule, the NEUTROPHIL (120 h, time 5 day) was 9%, the “NUCLEATED RED BLOOD CELLS” value (120 h, time 5 day) was 0.17 /100WBC and the “PLATELET COUNT” value (120 h, time 5 day) was 1275.33 x10E3/uL. The “ALANINE AMINOTRANSFERASE” value (120 h, time 5 day) was 93.67 u/L, the ALBUMIN (120 h, time 5 day) was 4.17 G/DL and the “ALKALINE PHOSPHATASE” value (120 h, time 5 day) was 402.5 u/L. For the same molecule, the “ASPARTATE AMINOTRANSFERASE” value (120 h, time 5 day) was 122.83 u/L, the “BLOOD UREA NITROGEN” value (120 h, time 5 day) was 14.75 mg/dL and the “CARBON DIOXIDE” value (120 h, time 5 day) was 26.4 mmol/L. The CHLORIDE (120 h, time 5 day) was 98.5 MEQ/L, the CHOLESTEROL (120 h, time 5 day) was 57.5 mg/dL and the “CREATINE PHOSPHOKINASE” value (120 h, time 5 day) was 305.17 u/L. The CREATININE (120 h, time 5 day) was 0.21 mg/dL, the GLUCOSE (120 h, time 5 day) was 142 mg/dL and the “LACTATE DEHYDROGENASE” value (120 h, time 5 day) was 83.5 u/L. It also gave an LIPASE (120 h, time 5 day) of 85.83 u/L, a PHOSPHORUS (120 h, time 5 day) of 8.18 mg/dL and a POTASSIUM (120 h, time 5 day) of 5.46 MEQ/L. The SODIUM (120 h, time 5 day) was 144 MEQ/L, the “TOTAL BILIRUBIN” value (120 h, time 5 day) was 0.25 mg/dL and the “TOTAL PROTEIN” value (120 h, time 5 day) was 5.63 G/DL. For the same molecule, the “URIC ACID” value (120 h, time 5 day) was 0.8 mg/dL.
